A word on the inhibition: it is how much of the control response was suppressed.

SMILES strings stand for the structures. Where a name gives a salt, the structure may show the parent alone.

T1 sequence (P23975 whole entry): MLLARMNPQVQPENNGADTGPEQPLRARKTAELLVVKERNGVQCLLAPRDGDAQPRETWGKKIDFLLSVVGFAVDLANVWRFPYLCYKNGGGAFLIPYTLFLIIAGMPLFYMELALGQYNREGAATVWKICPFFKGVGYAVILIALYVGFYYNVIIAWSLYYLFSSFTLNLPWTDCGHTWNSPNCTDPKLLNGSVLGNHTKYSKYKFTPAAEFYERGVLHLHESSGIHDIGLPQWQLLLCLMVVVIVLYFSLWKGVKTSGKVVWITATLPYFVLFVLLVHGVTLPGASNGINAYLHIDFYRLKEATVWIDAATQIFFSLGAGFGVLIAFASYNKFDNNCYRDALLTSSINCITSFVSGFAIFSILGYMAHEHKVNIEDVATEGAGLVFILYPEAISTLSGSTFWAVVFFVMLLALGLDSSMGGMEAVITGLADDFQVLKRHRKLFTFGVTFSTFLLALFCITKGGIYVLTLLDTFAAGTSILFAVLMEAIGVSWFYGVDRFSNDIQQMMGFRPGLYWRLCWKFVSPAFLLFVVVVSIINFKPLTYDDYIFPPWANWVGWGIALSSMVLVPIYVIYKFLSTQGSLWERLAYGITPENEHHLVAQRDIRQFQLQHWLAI

One assay has as its target T1, hNET (Homo sapiens, UniProt P23975).
T1 construct: expressed in transfected cells
Put plainly: Norepinephrine (NE) uptake assay in MDCK-Net6 cells stably transfected with human hNET. In kind it is cell-based. Conditions: MDCK-Net6, read-out: % Inhibition @ 1 μM (hNET). As to the method:
Cells were plated at 300,000/T75 flask and cells were split twice weekly. […] Cells were plated at 250,000 cells/T75 flask and split twice weekly.
On day 1, cells were plated at 3,000 cells/well in growth medium and maintained in a cell incubator (37° C., 5% CO2). On day 2, growth medium was replaced with 200 μl of assay buffer (25 mM HEPES; 120 mM NaCl; 5 mM KCl; 2.5 mM CaCl2; 1.2 mM MgSO4; 2 mg/ml glucose (pH 7.4, 37° C.)) containing 0.2 mg/ml ascorbic acid and 10 μM pargyline. Plates containing cells with 200 μl of assay buffer were equilibrated for 10 minutes at 37° C. prior to addition of compounds. A stock solution of desipramine was prepared in DMSO (10 mM) and delivered to triplicate wells containing cells for a final test concentration of 1 μM. Data from these wells were used to define non-specific NE uptake (minimum NE uptake). Test compounds were prepared in DMSO (10 mM) and diluted in assay buffer according to test range (1 to 10,000 nM). Twenty-five microliters of assay buffer (maximum NE uptake) or test compound were added directly to triplicate wells containing cells in 200 μl of assay buffer. The cells in assay buffer with test compounds were incubated for 20 minutes at 37° C. To initiate the NE uptake, [^3H]NE diluted in assay buffer (120 nM final assay concentration) was delivered in 25 μl aliquots to each well and the plates were incubated for 5 minutes (37° C.). The reaction was terminated by decanting the supernatant from the plate. The plates containing cells were washed twice with 200 μl assay buffer (37° C.) to remove free radioligand. The plates were then inverted, left to dry for 2 minutes, then reinverted and air-dried for an additional 10 minutes. The cells were lysed in 25 μl of 0.25 N NaOH solution (4° C.), placed on a shake table and vigorously shaken for 5 minutes. After cell lysis, 75 μl of scintillation cocktail was added to each well and the plates were sealed with film tape. The plates were returned to the shake table and vigorously shaken for a minimum of 10 minutes to ensure adequate partitioning of organic and aqueous solutions. The plates were counted in a Wallac Microbeta counter (PerkinElmer) to collect the raw cpm data.
For each experiment, a data stream of cpm values collected from the Wallac Microbeta counter was downloaded to a Microsoft Excel statistical application program. Calculations of EC50 values were made using the transformed-both-sides logistic dose response program written by Wyeth Biometrics Department.
For the compound `CCNC[C@H](O)[C@@H](c1ccccc1)n1ccc2ccccc21` (racemic) [Example 5, (1RS,2SR)-3-(ethylamino)-1-(1H-indol-1-yl)-1-phenylpropan-2-ol hydrochloride], the inhibition at 1 µM was found to be 58.1%.
On the same count and under the same terms, next, `CNC[C@H](O)[C@@H](c1ccccc1)n1ccc2ccccc21` (racemic) [Example 11, (1RS,2SR)-1-(1H-indol-1-yl)-3-(methylamino)-1-phenylpropan-2-ol hydrochloride]: 94.5%.
Still for that read-out and setting: next, `CCNC[C@H](O)[C@@H](c1ccccc1)n1cc(C)c2ccccc21` (racemic) [Example 12, (1RS,2SR)-3-(ethylamino)-1-(3-methyl-1H-indol-1-yl)-1-phenyl propan-2-ol hydrochloride]: 70.6%.
Same read-out and setting: to `CNC[C@@H](O)[C@@H](c1ccccc1)n1ccc2ccccc21` (racemic) [Example 16, (1RS,2RS)-1-(1H-indol-1-yl)-3-(methylamino)-1-phenylpropan-2-ol hydrochloride] belongs 96.8%; to `CNC[C@H](O)[C@@H](c1ccccc1)n1ccc2cc(F)ccc21` (racemic) [Example 20, (1RS,2SR)-1-(5-fluoro-1H-indol-1-yl)-3-(methylamino)-1-phenylpropan-2-ol hydrochloride], 85%; to `Cc1cn([C@H](c2ccccc2)[C@@H](O)CN)c2ccccc12` (racemic) [Example 24, (1RS,2SR)-3-amino-1-(3-methyl-1H-indol-1-yl)-1-phenylpropan-2-ol hydrochloride], 57.2%.
On to `CNC[C@H](O)[C@@H](c1ccccc1)n1ccc2cc(Cl)ccc21` (racemic) [Example 26, (1RS,2SR)-1-(5-chloro-1H-indol-1-yl)-3-(methylamino)-1-phenylpropan-2-ol hydrochloride], for which the inhibition at 1 µM stood at 54%.
Still for that read-out and setting: to `CNC[C@@H](O)[C@@H](c1ccccc1)n1ccc2cc(Cl)ccc21` (racemic) [Example 27, hydrochloride] belongs 75.4%; to `CNC[C@@H](O)[C@H](c1ccccc1)n1ccc2cc(OC)ccc21` (racemic) [Example 80, (1RS,2SR)-1-(5-methoxy-1H-indol-1-yl)-3-(methylamino)-1-phenyl propan-2-ol hydrochloride], 83.5%.

The assay is the same for the next values; noted with them: test compound 1 μM; [3H]NE uptake, MDCK-Net6 cells; read-out: % Inhibition @ 1 μM (hNET).
On to `O[C@@H](CN1CCOCC1)[C@@H](c1ccccc1)n1ccc2ccccc21` (racemic) [Example 3, (1RS,2SR)-1-(1H-indol-1-yl)-3-morpholin-4-yl-1-phenylpropan-2-ol hydrochloride], for which the inhibition at 1 µM was determined as 17.6%.
Same read-out and setting: to `CN(C)C[C@H](O)[C@@H](c1ccccc1)n1ccc2ccccc21` (racemic) [Example 4, (1RS,2SR)-3-(dimethylamino)-1-(1H-indol-1-yl)-1-phenylpropan-2-ol hydrochloride] belongs 24.5%; to `CC(C)NC[C@H](O)[C@@H](c1ccccc1)n1ccc2ccccc21` (racemic) [Example 6, (1RS,2SR)-1-(1H-indol-1-yl)-3-(isopropylamino)-1-phenylpropan-2-ol hydrochloride], 13.1%; to `O[C@@H](CNCc1ccccc1)[C@@H](c1ccccc1)n1ccc2ccccc21` (racemic) [Example 7, (1RS,2SR)-3-(benzylamino)-1-(1H-indol-1-yl)-1-phenylpropan-2-ol hydrochloride], 25.6%.
Turning to `O[C@@H](CNCC1CCCCC1)[C@@H](c1ccccc1)n1ccc2ccccc21` (racemic) [Example 8, (1RS,2SR)-3-[(cyclohexylmethyl)amino]-1-(1H-indol-1-yl)-1-phenylpropan-2-ol hydrochloride], the inhibition at 1 µM was determined as 53.4%.
For the compound `O[C@@H](CN1CCNCC1)[C@@H](c1ccccc1)n1ccc2ccccc21` (racemic) [Example 13, (1RS,2SR)-1-(1H-indol-1-yl)-1-phenyl-3-piperazin-1-ylpropan-2-ol dihydrochloride], the inhibition at 1 µM was determined as 34.3%.
As to `O[C@@H](CNCc1ccncc1)[C@@H](c1ccccc1)n1ccc2ccccc21` (racemic) [Example 14, (1RS,2SR)-1-(1H-indol-1-yl)-1-phenyl-3-[(pyridin-4-ylmethyl)amino]propan-2-ol hydrochloride], the inhibition at 1 µM is 24.4%.
As for `O[C@@H](CN1CCCCC1)[C@@H](c1ccccc1)n1ccc2cc(Cl)ccc21` (racemic) [Example 15, (1RS,2SR)-1-(5-chloro-1H-indol-1-yl)-1-phenyl-3-piperidin-1-ylpropan-2-ol hydrochloride], the inhibition at 1 µM is 8.5%.
On the same count and under the same terms, next, `NC[C@H](O)[C@@H](c1ccccc1)n1ccc2ccccc21` (racemic) [Example 17, (1RS,2SR)-3-amino-1-(1H-indol-1-yl)-1-phenylpropan-2-ol hydrochloride]: 71%.
Same read-out and setting: to `CCNC[C@H](O)[C@@H](c1ccccc1)n1ccc2cc(F)ccc21` (racemic) [Example 18, (1RS,2SR)-3-(ethylamino)-1-(5-fluoro-1H-indol-1-yl)-1-phenylpropan-2-ol hydrochloride] belongs 11.3%; to `NC[C@H](O)[C@@H](c1ccccc1)n1ccc2cc(F)ccc21` (racemic) [Example 19, (1RS,2SR)-3-amino-1-(5-fluoro-1H-indol-1-yl)-1-phenylpropan-2-ol hydrochloride], 31.6%; to `CCN(C)C[C@H](O)[C@@H](c1ccccc1)n1ccc2ccccc21` (racemic) [Example 25, (1RS,2SR)-3-[ethyl(methyl)amino]-1-(1H-indol-1-yl)-1-phenylpropan-2-ol hydrochloride], 37.5%.
Still for that read-out and setting: to `CNC[C@H](O)[C@@H](c1ccccc1)n1cc(C#N)c2ccccc21` (racemic) [Example 28, 1-[(1RS,2SR)-2-hydroxy-3-(methylamino)-1-phenylpropyl]-1H-indole-3-carbonitrile hydrochloride] belongs 30.1%; to `CNC[C@@H](O)[C@H](c1ccc(OC(F)(F)F)cc1)n1ccc2ccccc21` (racemic) [Example 39, (1RS,2SR)-1-(1H-indol-1-yl)-3-(methylamino)-1-[4-(trifluoromethoxy)phenyl]propan-2-ol hydrochloride], 57.4%.
Consider `CNC[C@@H](O)[C@H](c1ccc(OC)cc1)n1ccc2ccccc21` (racemic) [Example 70, (1SR,2RS)-1-(1H-indol-1-yl)-1-(4-methoxyphenyl)-3-(methylamino)propan-2-ol hydrochloride], for which the inhibition at 1 µM came out at 77.7%.
For `CNC[C@@H](O)[C@H](c1ccccc1)n1c(C)cc2ccccc21` (racemic) [Example 71, (1RS,2SR)-3-(methylamino)-1-(2-methyl-1H-indol-1-yl)-1-phenylpropan-2-ol hydrochloride], the inhibition at 1 µM turned out to be 44.9%.
Same read-out and setting: to `CNC[C@@H](O)[C@H](c1ccccc1)n1cnc2ccccc21` (racemic) [Example 72, (1RS,2SR)-1-(1H-benzimidazol-1-yl)-3-(methylamino)-1-phenyl propan-2-ol hydrochloride] belongs 24%; to `CNC[C@@H](O)[C@H](c1ccccc1)n1c(C)nc2ccccc21` (racemic) [Example 73, (1RS,2SR)-3-(methylamino)-1-(2-methyl-1H-benzimidazol-1-yl)-1-phenylpropan-2-ol hydrochloride], 21.8%; to `CNC[C@@H](O)[C@H](c1ccccc1)n1ccc2c(OC)cccc21` (racemic) [Example 74, (1RS,2SR)-1-(4-methoxy-1H-indol-1-yl)-3-(methylamino)-1-phenyl propan-2-ol hydrochloride], 67%.

Still in this assay, the particulars now being: test compound 10 μM (stated in cell); [3H]NE uptake, MDCK-Net6 cells.
For `CN1CCN(C[C@H](O)[C@@H](c2ccccc2)n2ccc3cc(F)ccc32)CC1` (racemic) [Example 2, (1RS,2SR)-1-(5-fluoro-1H-indol-1-yl)-3-(4-methylpiperazin-1-yl)-1-phenylpropan-2-ol dihydrochloride], testing at 10 µM gave an inhibition of 66.5%.
The compound `Cc1cn([C@H](c2ccccc2)[C@@H](O)CNCC2CCCCC2)c2ccccc12` (racemic) [Example 9, (1RS,2SR)-3-[(cyclohexylmethyl)amino]-1-(3-methyl-1H-indol-1-yl)-1-phenylpropan-2-ol hydrochloride] registered an inhibition at 10 µM of 79.2%.
Still for that read-out and setting: next, `Cc1cn([C@H](c2ccccc2)[C@@H](O)CNC(C)C)c2ccccc12` (racemic) [Example 10, (1RS,2SR)-3-(isopropylamino)-1-(3-methyl-1H-indol-1-yl)-1-phenylpropan-2-ol hydrochloride]: 70.5%.
